# According to publication PMC12892976, “Alkylation-based optimization of antifungal FPPS inhibitors yields a potent, broad-spectrum lipophilic zoledronate derivative” (mBio, 2025):
# Where two headings read alike, the source gives them in different places.
# Tests used:
# Saccharomyces cerevisiae [1] = experiment: MIC/MFC broth microdilution (CLSI); type: cell-based; settings: Saccharomyces cerevisiae S288c
# Protocol: (§1) Antifungal susceptibility was determined by broth microdilution according to the CLSI guidelines described in M27-Ed4 ([16]). […] MFC was determined by back-plating drug-treated cultures from MIC broths onto SDA plates. The MFC was defined as the lowest concentration from which no colonies could be cultured.
# Candida albicans [2] = experiment: MIC/MFC broth microdilution (CLSI); type: cell-based; settings: Candida albicans SC5314
# Protocol: as §1
# [3] = tested on: Cryptococcus deuterogattii; experiment: checkerboard drug interaction (FICI, MICc);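 as to all read-outs here: simplified diagonal checkerboard screen pairing antifungal drugs with FPPS inhibitors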; type: cell-based; settings: C. deuterogattii; for INH FD (MIC-MICc fold decrease): fold decrease of inhibitor MIC
# Protocol: (§2) Drug interactions between antifungals and FPPS inhibitors were investigated using a simplified checkerboard diagonal screening method ([45]). […] FICIs were determined according to the Loewe additivity model ([17]).
# Cryptococcus neoformans [4] = experiment: checkerboard drug interaction (FICI, MICc);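 as to all read-outs here: antifungal plus FPPS inhibitor pairs tested against Cryptococcus neoformans by simplified diagonal checkerboard screening, FICI computed under the Loewe additivity model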; type: cell-based; settings: C. neoformans; for INH FD (MIC-MICc fold decrease): fold decrease of inhibitor MIC
# Protocol: as §2
# Saccharomyces cerevisiae [5] = experiment: checkerboard drug interaction (FICI, MICc); type: cell-based; design: INH MICc / INH MICc (ITR:INH) / INH MICc (KET:INH) / INH MICc (FLC:INH): unit not given beside the values;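 also: simplified diagonal checkerboard screen pairing antifungals with FPPS inhibitors, FICI calculated under the Loewe additivity model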
# Candida glabrata [6] = experiment: checkerboard drug interaction (FICI, MICc);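 as to all read-outs here: simplified diagonal checkerboard screen pairing antifungals with FPPS inhibitors, FICI calculated under the Loewe additivity model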; type: cell-based; settings: C. glabrata; for INH FD (MIC-MICc fold decrease): fold decrease of inhibitor MIC
# Protocol: as §2
# Candida albicans [7] = experiment: checkerboard drug interaction (FICI, MICc);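 as to all read-outs here: antifungal plus FPPS inhibitor combinations on Candida albicans tested by a simplified diagonal checkerboard screen, with FICI calculated under the Loewe additivity model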; type: cell-based; settings: C. albicans; for INH FD (MIC-MICc fold decrease): fold decrease of inhibitor MIC
# Protocol: as §2
# Aspergillus flavus [8] = experiment: checkerboard drug interaction (FICI, MICc);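 also: simplified diagonal checkerboard screen pairing azole antifungals with FPPS inhibitors, FICI calculated under the Loewe additivity model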; type: cell-based; design: INH MICc (KET:INH) / INH MICc (FLC:INH): unit not given beside the values; settings: A. flavus
# Aspergillus fumigatus [9] = experiment: checkerboard drug interaction (FICI, MICc); type: cell-based;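 also: simplified diagonal checkerboard screen pairing antifungals with FPPS inhibitors against Aspergillus fumigatus, with FICI calculated under the Loewe additivity model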
# Protocol: as §2
# Trichophyton rubrum [10] = experiment: checkerboard drug interaction (FICI, MICc);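 also: simplified diagonal checkerboard screen pairing azole antifungals with FPPS inhibitors, FICI calculated under the Loewe additivity model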; type: cell-based; settings: T. rubrum
# Protocol: as §2
# HEK-293T cells = experiment: MTT reduction cytotoxicity assay; type: cell-based; settings: Homo sapiens, HEK-293T, 72 h, HEK-293T, MTT, 72 h; read-out: HEK IC50
# eight fungal species [11] = experiment: MIC/MFC summary across the eight fungal species of Table 1; type: cell-based
# Protocol: The antifungal activity of these compounds was evaluated according to CLSI guidelines ([16]).
# eight fungal species [12] = experiment: checkerboard interaction with azoles, summary across the eight species; type: cell-based; settings: geometric mean MIC in combination with azoles
# Source text: Synergy between lipophilic FPPS inhibitors and azole antifungals was investigated by determining the fractional inhibitory concentration index (FICI) (Fig. 2; Table S1 Fig. S1) ([17]). […]. Derivatives PLA9 and 11, and PDA9, 11, and 12 antagonized azoles in C. albicans, C. neoformans, and C. deuterogattii, yet were largely synergistic in C. glabrata and S. cerevisiae. […].
# [13] = tested on: Cryptococcus deuterogattii; experiment: MIC/MFC broth microdilution (CLSI); settings: Cryptococcus deuterogattii;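 also: broth microdilution per CLSI M27-Ed4. MFC is the lowest concentration yielding no colonies when MIC broths are subcultured onto SDA plates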
# Protocol: as §1
# Cryptococcus neoformans [14] = experiment: MIC/MFC broth microdilution (CLSI); settings: Cryptococcus neoformans;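 also: susceptibility testing followed the CLSI M27-Ed4 broth microdilution document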
# Protocol: as §1
# Candida glabrata [15] = experiment: MIC/MFC broth microdilution (CLSI); settings: Nakaseomyces glabratus, CBS138;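 also: broth microdilution following CLSI M27-Ed4, MFC taken as the lowest drug level yielding no growth once MIC wells were subcultured on SDA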
# Protocol: as §1
# Aspergillus flavus [16] = experiment: MIC/MFC broth microdilution (CLSI); settings: ATCC204304
# Protocol: as §1
# Aspergillus fumigatus [17] = experiment: MIC/MFC broth microdilution (CLSI); settings: ATCC204305
# Protocol: as §1
# Trichophyton rubrum [18] = experiment: MIC/MFC broth microdilution (CLSI); settings: Trichophyton rubrum
# Protocol: as §1
# [19] = FLC:INH combination, MIC of the inhibitor in combination with FLC
# [20] = FLC:INH combination, fold decrease of FLC MIC
# [21] = ITR:INH combination, MIC of the inhibitor in combination with ITR
# [22] = ITR:INH combination, fold decrease of ITR MIC
# [23] = KET:INH combination, MIC of the inhibitor in combination with KET
# [24] = KET:INH combination, fold decrease of KET MIC
# [25] = Fractional Inhibitory Concentration Index, fluconazole + inhibitor
# [26] = Fractional Inhibitory Concentration Index, itraconazole + inhibitor
# [27] = Fractional Inhibitory Concentration Index, ketoconazole + inhibitor
# [28] = MIC of the inhibitor in combination with fluconazole
# [29] = MIC of the inhibitor in combination with itraconazole
# [30] = MIC of the inhibitor in combination with ketoconazole
# [31] = MIC-MICc fold decrease of fluconazole, negative = increase
# [32] = MIC-MICc fold decrease of itraconazole, negative = increase
# [33] = MIC-MICc fold decrease of ketoconazole, negative = increase
# [34] = MIC-MICc fold decrease of the inhibitor, with fluconazole
# [35] = MIC-MICc fold decrease of the inhibitor, with itraconazole
# [36] = MIC-MICc fold decrease of the inhibitor, with ketoconazole
compound,measurement,setting,value
CCCCCCCCCN1CCC[C@H]1C(=O)N[C@H](CC(=O)O)C(=O)O [PDA9],MFC,Saccharomyces cerevisiae [1],> 128 µg/mL
same,MIC,Saccharomyces cerevisiae [1],> 128 µg/mL
same,MFC,Candida albicans [2],> 128 µg/mL
same,MIC,Candida albicans [2],> 128 µg/mL
same,FICI,[3]; FLC:INH combination,≥4
same,INH MICc,[3]; [19],256
same,FLC FD (MIC-MICc fold decrease),[3]; [20],-4
same,INH FD (MIC-MICc fold decrease),[3]; FLC:INH combination,1
same,FICI,[3]; ITR:INH combination,≥4
same,INH MICc,[3]; [21],256
same,ITR FD (MIC-MICc fold decrease),[3]; [22],< -4
same,INH FD (MIC-MICc fold decrease),[3]; ITR:INH combination,1
same,FICI,[3]; KET:INH combination,2
same,INH MICc,[3]; [23],256
same,KET FD (MIC-MICc fold decrease),[3]; [24],1
same,INH FD (MIC-MICc fold decrease),[3]; KET:INH combination,1
same,FICI,Cryptococcus neoformans [4]; FLC:INH combination,≥4
same,INH MICc,Cryptococcus neoformans [4]; [19],256
same,FLC FD (MIC-MICc fold decrease),Cryptococcus neoformans [4]; [20],< -4
same,INH FD (MIC-MICc fold decrease),Cryptococcus neoformans [4]; FLC:INH combination,1
same,FICI,Cryptococcus neoformans [4]; ITR:INH combination,≥4
same,INH MICc,Cryptococcus neoformans [4]; [21],128
same,ITR FD (MIC-MICc fold decrease),Cryptococcus neoformans [4]; [22],-4
same,INH FD (MIC-MICc fold decrease),Cryptococcus neoformans [4]; ITR:INH combination,2
same,FICI,Cryptococcus neoformans [4]; KET:INH combination,≥4
same,INH MICc,Cryptococcus neoformans [4]; [23],128
same,KET FD (MIC-MICc fold decrease),Cryptococcus neoformans [4]; [24],-4
same,INH FD (MIC-MICc fold decrease),Cryptococcus neoformans [4]; KET:INH combination,2
same,FICI (FLC:INH),Saccharomyces cerevisiae [5]; [25],0.75
same,FICI (ITR:INH),Saccharomyces cerevisiae [5]; [26],2.06
same,FICI (KET:INH),Saccharomyces cerevisiae [5]; [27],0.5
same,INH MICc (FLC:INH),Saccharomyces cerevisiae [5]; [28],64
same,INH MICc (ITR:INH),Saccharomyces cerevisiae [5]; [29],16
same,INH MICc (KET:INH),Saccharomyces cerevisiae [5]; [30],64
same,FLC FD (FLC:INH),Saccharomyces cerevisiae [5]; [31],2
same,ITR FD (ITR:INH),Saccharomyces cerevisiae [5]; [32],-2
same,KET FD (KET:INH),Saccharomyces cerevisiae [5]; [33],4
same,INH FD (FLC:INH),Saccharomyces cerevisiae [5]; [34],4
same,INH FD (ITR:INH),Saccharomyces cerevisiae [5]; [35],16
same,INH FD (KET:INH),Saccharomyces cerevisiae [5]; [36],4
same,FICI,Candida glabrata [6]; FLC:INH combination,0.31
same,INH MICc,Candida glabrata [6]; [19],4
same,FLC FD (MIC-MICc fold decrease),Candida glabrata [6]; [20],4
same,INH FD (MIC-MICc fold decrease),Candida glabrata [6]; FLC:INH combination,64
same,FICI,Candida glabrata [6]; ITR:INH combination,0.28
same,INH MICc,Candida glabrata [6]; [21],2
same,ITR FD (MIC-MICc fold decrease),Candida glabrata [6]; [22],4
same,INH FD (MIC-MICc fold decrease),Candida glabrata [6]; ITR:INH combination,128
same,FICI,Candida glabrata [6]; KET:INH combination,0.28
same,INH MICc,Candida glabrata [6]; [23],2
same,KET FD (MIC-MICc fold decrease),Candida glabrata [6]; [24],4
same,INH FD (MIC-MICc fold decrease),Candida glabrata [6]; KET:INH combination,128
same,FICI,Candida albicans [7]; FLC:INH combination,≥4
same,INH MICc,Candida albicans [7]; [19],64
same,FLC FD (MIC-MICc fold decrease),Candida albicans [7]; [20],< -4
same,INH FD (MIC-MICc fold decrease),Candida albicans [7]; FLC:INH combination,4
same,FICI,Candida albicans [7]; ITR:INH combination,≥4
same,INH MICc,Candida albicans [7]; [21],64
same,ITR FD (MIC-MICc fold decrease),Candida albicans [7]; [22],< -4
same,INH FD (MIC-MICc fold decrease),Candida albicans [7]; ITR:INH combination,4
same,FICI,Candida albicans [7]; KET:INH combination,≥4
same,INH MICc,Candida albicans [7]; [23],64
same,KET FD (MIC-MICc fold decrease),Candida albicans [7]; [24],< -4
same,INH FD (MIC-MICc fold decrease),Candida albicans [7]; KET:INH combination,4
same,FICI (FLC:INH),Aspergillus flavus [8]; [25],1
same,FICI (ITR:INH),Aspergillus flavus [8]; [26],1.02
same,FICI (KET:INH),Aspergillus flavus [8]; [27],1
same,INH MICc (FLC:INH),Aspergillus flavus [8]; [28],128
same,INH MICc (ITR:INH),Aspergillus flavus [8]; [29],4
same,INH MICc (KET:INH),Aspergillus flavus [8]; [30],128
same,FLC FD (FLC:INH),Aspergillus flavus [8]; [31],2
same,ITR FD (ITR:INH),Aspergillus flavus [8]; [32],1
same,KET FD (KET:INH),Aspergillus flavus [8]; [33],2
same,INH FD (FLC:INH),Aspergillus flavus [8]; [34],2
same,INH FD (ITR:INH),Aspergillus flavus [8]; [35],64
same,INH FD (KET:INH),Aspergillus flavus [8]; [36],2
same,FICI (FLC:INH),Aspergillus fumigatus [9]; [25],2
same,FICI (ITR:INH),Aspergillus fumigatus [9]; [26],0.25
same,FICI (KET:INH),Aspergillus fumigatus [9]; [27],1.5
same,INH MICc (FLC:INH),Aspergillus fumigatus [9]; [28],256
same,INH MICc (ITR:INH),Aspergillus fumigatus [9]; [29],1
same,INH MICc (KET:INH),Aspergillus fumigatus [9]; [30],128
same,FLC FD (FLC:INH),Aspergillus fumigatus [9]; [31],1
same,ITR FD (ITR:INH),Aspergillus fumigatus [9]; [32],4
same,KET FD (KET:INH),Aspergillus fumigatus [9]; [33],1
same,INH FD (FLC:INH),Aspergillus fumigatus [9]; [34],1
same,INH FD (ITR:INH),Aspergillus fumigatus [9]; [35],256
same,INH FD (KET:INH),Aspergillus fumigatus [9]; [36],2
same,FICI (FLC:INH),Trichophyton rubrum [10]; [25],3
same,FICI (ITR:INH),Trichophyton rubrum [10]; [26],2
same,FICI (KET:INH),Trichophyton rubrum [10]; [27],0.75
same,INH MICc (FLC:INH),Trichophyton rubrum [10]; [28],256
same,INH MICc (ITR:INH),Trichophyton rubrum [10]; [29],256
same,INH MICc (KET:INH),Trichophyton rubrum [10]; [30],64
same,FLC FD (FLC:INH),Trichophyton rubrum [10]; [31],-2
same,ITR FD (ITR:INH),Trichophyton rubrum [10]; [32],1
same,KET FD (KET:INH),Trichophyton rubrum [10]; [33],2
same,INH FD (FLC:INH),Trichophyton rubrum [10]; [34],1
same,INH FD (ITR:INH),Trichophyton rubrum [10]; [35],1
same,INH FD (KET:INH),Trichophyton rubrum [10]; [36],4
same,IC50,HEK-293T cells,> 256 µg/mL
same,MFC,"eight fungal species [11]; across eight species, read-out: Geometric mean MFC",> 128 µg/mL
same,MIC,"eight fungal species [11]; geometric mean across eight species, read-out: GM fungal MIC",> 128 µg/mL
same,MIC,eight fungal species [11]; read-out: Geometric mean MIC,> 128 µg/mL
same,GM fungal MICc,eight fungal species [12],52.3
same,MFC,[13],> 128 µg/mL
same,MIC,[13],> 128 µg/mL
same,MFC,Cryptococcus neoformans [14],> 128 µg/mL
same,MIC,Cryptococcus neoformans [14],> 128 µg/mL
same,MFC,Candida glabrata [15],> 128 µg/mL
same,MIC,Candida glabrata [15],> 128 µg/mL
same,MFC,Aspergillus flavus [16],> 128 µg/mL
same,MIC,Aspergillus flavus [16],> 128 µg/mL
same,MFC,Aspergillus fumigatus [17],> 128 µg/mL
same,MIC,Aspergillus fumigatus [17],> 128 µg/mL
same,MFC,Trichophyton rubrum [18],> 128 µg/mL
same,MIC,Trichophyton rubrum [18],> 128 µg/mL
